Like-named read-outs stand apart in the source and are kept apart here. One block for each compound: values may come before it.
Assays:
Galectin-3 = Galectin-3 (Homo sapiens, UniProt P17931); assay: fluorescence anisotropy assay, compound as inhibitor of galectin / fluorescein tagged saccharide probe interaction; assay type: binding
Text: (§1) Anal. Biochem. 334: 36-47, (Sörme et al., 2004) and Monovalent interactions of Galectin-1 By Salomonsson, Emma; Larumbe, Amaia; Tejler, Johan; Tullberg, Erik; Rydberg, Hanna; Sundin, Anders; Khabut, Areej; Frejd, Torbjorn; Lobsanov, Yuri D.; Rini, James M.; et al, From Biochemistry (2010), 49(44), 9518-9532, (Salomonsson et al., 2010).

Galectin-1 = Galectin-1 (Homo sapiens, UniProt P09382); assay: as above; assay type: binding
Text: as §1

Galectin-3, sequence (P17931 whole entry): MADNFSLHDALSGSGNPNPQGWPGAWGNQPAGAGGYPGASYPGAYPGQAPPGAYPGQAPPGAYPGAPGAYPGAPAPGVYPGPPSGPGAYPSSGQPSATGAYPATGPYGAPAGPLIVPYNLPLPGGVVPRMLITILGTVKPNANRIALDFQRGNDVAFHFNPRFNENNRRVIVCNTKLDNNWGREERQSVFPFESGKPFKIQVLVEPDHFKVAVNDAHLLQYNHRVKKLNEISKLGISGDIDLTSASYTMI
Galectin-1, sequence (P09382 whole entry): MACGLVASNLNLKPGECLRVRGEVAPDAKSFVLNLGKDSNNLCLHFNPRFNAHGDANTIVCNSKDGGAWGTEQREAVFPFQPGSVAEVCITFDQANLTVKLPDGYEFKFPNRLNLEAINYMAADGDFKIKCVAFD

- Kd (Galectin-3): 3.6 µM
- Kd (Galectin-1): 71 nM
SMILES: CO[C@@H]1[C@@H](n2cc(-c3csc(N)n3)nn2)[C@@H](O)[C@@H](CO)O[C@@H]1Sc1ccc(C#N)c(Cl)c1 [Example 39, 3-Chloro-4-cyanophenyl 3-[4-(2-aminothiazol-4-yl)-1H-1,2,3-triazol-1-yl]-3-deoxy-2-O-methyl-1-thio-α-D-galactopyranoside]

- Kd (Galectin-3): 10.7 µM
- Kd (Galectin-1): 240 nM
SMILES: CO[C@@H]1[C@@H](n2cc(-c3csc(N)n3)nn2)[C@@H](O)[C@@H](CO)O[C@@H]1Sc1cncc(C#N)c1 [Example 40, 5-Cyanopyridin-3yl 3-[4-(2-aminothiazol-4-yl)-1H-1,2,3-triazol-1-yl]-3-deoxy-2-O-methyl-1-thio-α-D-galactopyranoside]

- Kd (Galectin-3): 9.3 µM
- Kd (Galectin-1): 130 nM
SMILES: OC[C@H]1O[C@H](Sc2cc(Cl)c(F)c(Cl)c2)C[C@@H](n2cc(-c3csc(O)n3)nn2)[C@H]1O [Example 41, 3,5-Dichloro-4-fluorophenyl 2,3-dideoxy-3-[4-(2-hydroxythiazol-4-yl)-1H-1,2,3-triazol-1-yl]-1-thio-α-D-galactopyranoside]

- Kd (Galectin-3): 10.3 µM
- Kd (Galectin-1): 730 nM
SMILES: N#Cc1ccc(S[C@@H]2C[C@@H](n3cc(-c4csc(N)n4)nn3)[C@@H](O)[C@@H](CO)O2)cc1Cl [Example 42, 3-Chloro-4-cyanophenyl 3-[4-(2-aminothiazol-4-yl)-1H-1,2,3-triazol-1-yl]-2,3-dideoxy-1-thio-α-D-galactopyranoside]

- Kd (Galectin-3): 1.2 µM
- Kd (Galectin-1): 130 nM
SMILES: N#Cc1ccc(Cl)cc1S[C@@H]1C[C@@H](n2cc(-c3nc(Cl)cs3)nn2)[C@@H](O)[C@@H](CO)O1 [Example 43, 5-Chloro-2-cyanophenyl 3-[4-(4-chlorothiazol-2-yl)-1H-1,2,3-triazol-1-yl]-2,3-dideoxy-1-thio-α-D-galactopyranoside]

- Kd (Galectin-3): 16.7 µM
- Kd (Galectin-1): 360 nM
SMILES: CO[C@@H]1[C@@H](n2cc(-c3csc(N)n3)nn2)[C@@H](O)[C@@H](CO)O[C@@H]1Sc1cnc(C(F)(F)F)c(C#N)c1 [Example 44, 3-Cyano-2-(trifluoromethyl)pyridin-5-yl 3-[4-(2-aminothiazol-4-yl)-1H-1,2,3-triazol-1-yl]-3-deoxy-2-O-methyl-1-thio-α-D-galactopyranoside]

- Kd (Galectin-3): 0.074 µM
- Kd (Galectin-1): 22 nM
SMILES: COC1C(n2cc(-c3nc(Cl)cs3)nn2)[C@@H](O)C(CO)O[C@@H]1Sc1cc(Cl)cnc1C(=O)N1CCC1 (stereo partly drawn) [Example 45, 5-Chloro-2-(N-azetidinylcarbamoyl)-3-pyridinyl 3-[4-(4-chlorothiazol-2-yl)-1H-1,2,3-triazol-1-yl]-3-deoxy-2-O-methyl-1-thio-α-D-galactopyranoside]

- Kd (Galectin-3): 2.53 µM
- Kd (Galectin-1): 35 nM
SMILES: CO[C@@H]1[C@@H](n2cc(-c3nc(C)cs3)nn2)[C@@H](O)[C@@H](CO)O[C@@H]1Sc1cc(Cl)cnc1-c1ccccn1 [Example 46, 5-Chloro-2-(pyridin-2-yl)pyridin-3-yl 3-deoxy-3-[4-(4-methylthiazol-2-yl)-1H-1,2,3-triazol-1-yl]-2-O-methyl-1-thio-α-D-galactopyranoside]

- Kd (Galectin-3): 3.2 µM
- Kd (Galectin-1): 570 nM
SMILES: C#Cc1cncc(S[C@H]2O[C@H](CO)[C@H](O)[C@H](n3cc(-c4nccs4)nn3)[C@H]2OC)c1 [Example 47, 5-Ethynylpyridin-3-yl 3-deoxy-2-O-methyl-3-[4-(2-thiazolyl)-1H-1,2,3-triazol-1-yl]-1-thio-α-D-galactopyranoside]

Second part, the compound before the results:

SMILES: CO[C@@H]1[C@@H](n2cc(-c3csc(N)n3)nn2)[C@@H](O)[C@@H](CO)O[C@@H]1Sc1cc(Cl)cnc1-c1ncco1 [Example 27, 5-Chloro-2-(oxazol-2-yl)pyridin-3-yl 3-[4-(2-aminothiazol-4-yl)-1H-1,2,3-triazol-1-yl]-3-deoxy-2-O-methyl-1-thio-α-D-galactopyranoside]
- Kd (Galectin-3): 3.2 µM
- Kd (Galectin-1): 28 nM

SMILES: COC1C(n2cc(-c3csc(N)n3)nn2)[C@@H](O)C(CO)O[C@@H]1Sc1ccc(Cl)c(Cl)c1 (stereo partly drawn) [Example 28, 3,4-Dichlorphenyl 3-[4-(2-aminothiazol-4-yl)-1H-1,2,3-triazol-1-yl]-3-deoxy-2-O-methyl-1-thio-α-D-galactopyranoside]
- Kd (Galectin-3): 2.4 µM
- Kd (Galectin-1; read-out: Galectin-1 Kd): 63 nM

SMILES: CO[C@@H]1[C@@H](n2cc(-c3csc(N)n3)nn2)[C@@H](O)[C@@H](CO)O[C@@H]1Sc1cc(Cl)cnc1-c1nccs1 [Example 29, 5-Chloro-2-(thiazol-2-yl)pyridin-3-yl 3-[4-(2-aminothiazol-4-yl)-1H-1,2,3-triazol-1-yl]-3-deoxy-2-O-methyl-1-thio-α-D-galactopyranoside]
- Kd (Galectin-3): 8.7 µM
- Kd (Galectin-1): 48 nM

SMILES: CO[C@@H]1[C@@H](n2cc(-c3csc(N)n3)nn2)[C@@H](O)[C@@H](CO)O[C@@H]1Sc1ccc(C(F)(F)F)c(Cl)c1 [Example 30, 3-Chloro-4-(trifluoromethyl)phenyl 3-[4-(2-aminothiazol-4-yl)-1H-1,2,3-triazol-1-yl]-3-deoxy-2-O-methyl-1-thio-α-D-galactopyranoside]
- Kd (Galectin-3): 2.5 µM
- Kd (Galectin-1): 120 nM

SMILES: CO[C@@H]1[C@@H](n2cc(-c3csc(N)n3)nn2)[C@@H](O)[C@@H](CO)O[C@@H]1Sc1cccc(Cl)c1 [Example 31, 3-Chlorophenyl 3-[4-(2-aminothiazol-4-yl)-1H-1,2,3-triazol-1-yl]-3-deoxy-2-O-methyl-1-thio-α-D-galactopyranoside]
- Kd (Galectin-3): 5.6 µM
- Kd (Galectin-1): 200 nM

SMILES: Cc1sc(N)nc1-c1cn(C2C(O)[C@@H](Sc3cnc(C(F)(F)F)c(Br)c3)OC(CO)[C@@H]2O)nn1 (stereo partly shown) [Example 33]
- Kd (Galectin-3): 3 µM
- Kd (Galectin-1): 500 nM

SMILES: CO[C@@H]1[C@@H](n2cc(-c3nc(C)cs3)nn2)[C@@H](O)[C@@H](CO)O[C@@H]1Sc1cc(Br)cnc1C#N [Example 34, 5-Bromo-2-cyanopyridin-3-yl 3-deoxy-3-[4-(4-methylthiazol-2-yl)-1H-1,2,3-triazol-1-yl]-2-O-methyl-1-thio-α-D-galactopyranoside]
- Kd (Galectin-3): 1.4 µM
- Kd (Galectin-1): 53 nM

SMILES: CO[C@@H]1[C@@H](n2cc(-c3nc(C)cs3)nn2)[C@@H](O)[C@@H](CO)O[C@@H]1Sc1cc(C)cnc1C#N [Example 35, 2-Cyano-5-methylpyridin-3-yl 3-deoxy-3-[4-(4-methylthiazol-2-yl)-1H-1,2,3-triazol-1-yl]-2-O-methyl-1-thio-α-D-galactopyranoside]
- Kd (Galectin-3): 9 µM
- Kd (Galectin-1): 490 nM

SMILES: CO[C@@H]1[C@@H](n2cc(-c3nc(Cl)cs3)nn2)[C@@H](O)[C@@H](CO)O[C@@H]1Sc1cc(C)cnc1C#N [Example 36, 2-Cyano-5-methylpyridin-3-yl 3-[4-(4-chlorothiazol-2-yl)-1H-1,2,3-triazol-1-yl]-3-deoxy-2-O-methyl-1-thio-α-D-galactopyranoside]
- Kd (Galectin-3): 0.7 µM
- Kd (Galectin-1): 190 nM

SMILES: C#Cc1cncc(S[C@H]2O[C@H](CO)[C@H](O)[C@H](n3cc(-c4nc(Cl)cs4)nn3)[C@H]2OC)c1 [Example 37, 5-Ethynylpyridin-3-yl 3-[4-(4-chlorothiazol-2-yl)-1H-1,2,3-triazol-1-yl]-3-deoxy-2-O-methyl-1-thio-α-D-galactopyranoside]
- Kd (Galectin-3): 0.39 µM
- Kd (Galectin-1): 200 nM

SMILES: COC1C(n2cc(-c3csc(N)n3)nn2)[C@@H](O)C(CO)O[C@@H]1Sc1cc(Cl)cnc1N1CC2(COC2)C1 (stereo partly drawn) [Example 38, 5-Chloro-2-{N-(2-oxa)-6-azaspiro[3.3]heptanyl}-pyridin-3-yl 3-[4-(2-aminothiazol-4-yl)-1H-1,2,3-triazol-1-yl]-3-deoxy-2-O-methyl-1-thio-α-D-galactopyranoside]
- Kd (Galectin-3): 6.1 µM
- Kd (Galectin-1): 100 nM

— patent US12441754B2, “Galactoside inhibitor of galectins” (GALECTO BIOTECH AB, priority 2019, dated 2025)
